Laboratory results taken from US20230263822A1, “MODULATION OF FACTOR 11 EXPRESSION” (Ionis Pharmaceuticals, Inc., priority 2008, published 2023).
Strand notation (5' to 3'): a small letter for the sugar, then the base; units joined by * are phosphorothioate-linked, units joined directly phosphodiester-linked; [ ] holds rarer units or linkages, { } end groups; capitals alone tell only the bases. e = 2'-O-(2-methoxyethyl) (MOE); [5mC] = 5-methylcytosine; d = 2'-deoxy (DNA)

System: human Factor 11 mRNA
Assay: Antisense inhibition of human Factor 11 in HepG2 cells by microwalk gapmers, lipofectin, 75 nM (Example 3)
Type: cell-based
Protocol: These gapmers were designed by creating gapmers shifted slightly upstream and downstream (i.e. “microwalk”) of the original gapmers from Table 3. Gapmers were also created with various motifs, e.g. 5-10-5 MOE, 3-14-3 MOE, and 2-13-5 MOE. These gapmers were tested in vitro. Cultured HepG2 cells at a density of 10,000 cells per well were transfected using lipofectin reagent with 75 nM antisense oligonucleotide. After a treatment period of approximately 24 hours, RNA was isolated from the cells and Factor 11 mRNA levels were measured by quantitative real-time PCR. Factor 11 mRNA levels were adjusted according to total RNA content, as measured by RIBOGREEN. Results are presented as percent inhibition of Factor 11, relative to untreated control cells.
The chimeric antisense oligonucleotides in Table 4 were designed as 5-10-5 MOE, 3-14-3 MOE, and 2-13-5 MOE gapmers. The first listed gapmers in Table 4 are the original gapmers (see Table 3) from which the remaining gapmers were designed via microwalk and are designated by an asterisk. The 5-10-5 gapmers are 20 nucleotides in length, wherein the central gap segment is comprised of 10 2′-deoxynucleotides and is flanked on both sides (in the 5′ and 3′ directions) by wings comprising 5 nucleotides each. The 3-14-3 gapmers are 20 nucleotides in length, wherein the central gap segment is comprised of 14 2′-deoxynucleotides and is flanked on both sides (in the 5′ and 3′ directions) by wings comprising 3 nucleotides each. The 2-13-5 gapmers are 20 nucleotides in length, wherein the central gap segment is comprised of 13 2′-deoxynucleotides. The central gap is flanked on the 5′ end with a wing comprising 2 nucleotides and on the 3′ end with a wing comprising 5 nucleotides. For each of the motifs (5-10-5, 3-14-3, and 2-13-5), each nucleotide in the 5′ wing segment and each nucleotide in the 3′ wing segment has a 2′-MOE modification. The internucleoside linkages throughout each gapmer are phosphorothioate (P=S) linkages. All cytidine residues throughout each gapmer are 5-methyl cytidines. “Target start site” indicates the 5′-most nucleotide to which the gapmer is targeted. “Target stop site” indicates the 3′-most nucleotide to which the gapmer is targeted. Each gapmer listed in Table 4 is targeted to SEQ ID NO: 1 (GENBANK Accession No. NM_000128.3).

[1] = HepG2, lipofectin, ~24 h, gapmers targeted to nucleobases 656 to 704 of SEQ ID NO: 1
[2] = HepG2 cells, lipofectin, gapmers targeted to nucleobases 738 to 762 of SEQ ID NO: 1
[3] = HepG2 cells, lipofectin, gapmers targeted to nucleobases 1018 to 1042 of SEQ ID NO: 1
[4] = HepG2 cells, lipofectin, gapmers targeted to nucleobases 1062 to 1091 of SEQ ID NO: 1

Substance	% inhibition [1] [%]	also measured
416806 (antisense eA*eA*eA*eT*eG*dT*d[5mC]*dT*dT*dT*dG*dT*dT*dG*d[5mC]*eA*eA*eG*e[5mC]*eG) [compound 416806]	86	
416807 (antisense eT*eA*eA*eA*eT*dG*dT*d[5mC]*dT*dT*dT*dG*dT*dT*dG*e[5mC]*eA*eA*eG*e[5mC]) [compound 416807]	51	
416808 (antisense eA*eT*eA*eA*eA*dT*dG*dT*d[5mC]*dT*dT*dT*dG*dT*dT*eG*e[5mC]*eA*eA*eG) [compound 416808]	55	
416809 (antisense e[5mC]*eA*eT*eA*eA*dA*dT*dG*dT*d[5mC]*dT*dT*dT*dG*dT*eT*eG*e[5mC]*eA*eA) [compound 416809]	86	
416810 (antisense e[5mC]*eA*e[5mC]*eA*eT*dA*dA*dA*dT*dG*dT*d[5mC]*dT*dT*dT*eG*eT*eT*eG*e[5mC]) [compound 416810]	68	
416811 (antisense e[5mC]*e[5mC]*eA*e[5mC]*eA*dT*dA*dA*dA*dT*dG*dT*d[5mC]*dT*dT*eT*eG*eT*eT*eG) [compound 416811]	84	
416812 (antisense eT*e[5mC]*e[5mC]*eA*e[5mC]*dA*dT*dA*dA*dA*dT*dG*dT*d[5mC]*dT*eT*eT*eG*eT*eT) [compound 416812]	59	
416813 (antisense eG*eT*e[5mC]*e[5mC]*eA*d[5mC]*dA*dT*dA*dA*dA*dT*dG*dT*d[5mC]*eT*eT*eT*eG*eT) [compound 416813]	70	
416814 (antisense eA*eG*eG*eT*e[5mC]*d[5mC]*dA*d[5mC]*dA*dT*dA*dA*dA*dT*dG*eT*e[5mC]*eT*eT*eT) [compound 416814]	83	
416815 (antisense eT*eA*eG*eG*eT*d[5mC]*d[5mC]*dA*d[5mC]*dA*dT*dA*dA*dA*dT*eG*eT*e[5mC]*eT*eT) [compound 416815]	63	
416816 (antisense e[5mC]*eT*eA*eG*eG*dT*d[5mC]*d[5mC]*dA*d[5mC]*dA*dT*dA*dA*dA*eT*eG*eT*e[5mC]*eT) [compound 416816]	79	
416817 (antisense eT*e[5mC]*eT*eA*eG*dG*dT*d[5mC]*d[5mC]*dA*d[5mC]*dA*dT*dA*dA*eA*eT*eG*eT*e[5mC]) [compound 416817]	74	
416818 (antisense eT*eG*eT*e[5mC]*eT*dA*dG*dG*dT*d[5mC]*d[5mC]*dA*d[5mC]*dA*dT*eA*eA*eA*eT*eG) [compound 416818]	76	
416819 (antisense eA*eT*eG*eT*e[5mC]*dT*dA*dG*dG*dT*d[5mC]*d[5mC]*dA*d[5mC]*dA*eT*eA*eA*eA*eT) [compound 416819]	56	
416820 (antisense e[5mC]*eA*eT*eG*eT*d[5mC]*dT*dA*dG*dG*dT*d[5mC]*d[5mC]*dA*d[5mC]*eA*eT*eA*eA*eA) [compound 416820]	77	
416821 (antisense eT*e[5mC]*eA*eT*eG*dT*d[5mC]*dT*dA*dG*dG*dT*d[5mC]*d[5mC]*dA*e[5mC]*eA*eT*eA*eA) [compound 416821]	84	
416822 (antisense e[5mC]*eT*eT*e[5mC]*eA*dT*dG*dT*d[5mC]*dT*dA*dG*dG*dT*d[5mC]*e[5mC]*eA*e[5mC]*eA*eT) [compound 416822]	76	
416823 (antisense e[5mC]*e[5mC]*eT*eT*e[5mC]*dA*dT*dG*dT*d[5mC]*dT*dA*dG*dG*dT*e[5mC]*e[5mC]*eA*e[5mC]*eA) [compound 416823]	77	
416824 (antisense e[5mC]*e[5mC]*e[5mC]*eT*eT*d[5mC]*dA*dT*dG*dT*d[5mC]*dT*dA*dG*dG*eT*e[5mC]*e[5mC]*eA*e[5mC]) [compound 416824]	64	
416828 (antisense eT*eT*eA*eT*eG*d[5mC]*d[5mC]*d[5mC]*dT*dT*d[5mC]*dA*dT*dG*dT*e[5mC]*eT*eA*eG*eG) [compound 416828]	87	
416829 (antisense eT*eT*eT*eA*eT*dG*d[5mC]*d[5mC]*d[5mC]*dT*dT*d[5mC]*dA*dT*dG*eT*e[5mC]*eT*eA*eG) [compound 416829]	72	

Substance	% inhibition [1] [%]	also measured
416830 (antisense eT*e[5mC]*e[5mC]*eG*eT*dG*d[5mC]*dA*dT*d[5mC]*dT*dT*dT*d[5mC]*dT*eT*eG*eG*e[5mC]*eA) [compound 416830]		% inhibition [2]: 81%
416831 (antisense eA*eT*e[5mC]*e[5mC]*eG*dT*dG*d[5mC]*dA*dT*d[5mC]*dT*dT*dT*d[5mC]*eT*eT*eG*eG*e[5mC]) [compound 416831]		% inhibition [2]: 91%
416832 (antisense e[5mC]*eA*eT*e[5mC]*e[5mC]*dG*dT*dG*d[5mC]*dA*dT*d[5mC]*dT*dT*dT*e[5mC]*eT*eT*eG*eG) [compound 416832]		% inhibition [2]: 79%
416833 (antisense eT*e[5mC]*eA*eT*e[5mC]*d[5mC]*dG*dT*dG*d[5mC]*dA*dT*d[5mC]*dT*dT*eT*e[5mC]*eT*eT*eG) [compound 416833]		% inhibition [2]: 65%
416834 (antisense eG*eT*e[5mC]*eA*eT*d[5mC]*d[5mC]*dG*dT*dG*d[5mC]*dA*dT*d[5mC]*dT*eT*eT*e[5mC]*eT*eT) [compound 416834]		% inhibition [2]: 58%
416835 (antisense eA*e[5mC]*e[5mC]*eG*eG*dG*dA*dT*dG*dA*dT*dG*dA*dG*dT*eG*e[5mC]*eA*eG*eA) [compound 416835]		% inhibition [3]: 83%
416836 (antisense eA*eA*e[5mC]*e[5mC]*eG*dG*dG*dA*dT*dG*dA*dT*dG*dA*dG*eT*eG*e[5mC]*eA*eG) [compound 416836]		% inhibition [3]: 89%
416837 (antisense e[5mC]*eA*eA*e[5mC]*e[5mC]*dG*dG*dG*dA*dT*dG*dA*dT*dG*dA*eG*eT*eG*e[5mC]*eA) [compound 416837]		% inhibition [3]: 90%
416839 (antisense eG*eA*eT*eT*e[5mC]*dT*dT*dT*dG*dG*dG*d[5mC]*d[5mC]*dA*dT*eT*e[5mC]*e[5mC]*eT*eG) [compound 416839]		% inhibition [4]: 89%
416840 (antisense eA*eG*eA*eT*eT*d[5mC]*dT*dT*dT*dG*dG*dG*d[5mC]*d[5mC]*dA*eT*eT*e[5mC]*e[5mC]*eT) [compound 416840]		% inhibition [4]: 85%
416841 (antisense eG*eA*eG*eA*eT*dT*d[5mC]*dT*dT*dT*dG*dG*dG*d[5mC]*d[5mC]*eA*eT*eT*e[5mC]*e[5mC]) [compound 416841]		% inhibition [4]: 87%
416843 (antisense eT*eT*eT*eG*eA*dG*dA*dT*dT*d[5mC]*dT*dT*dT*dG*dG*eG*e[5mC]*e[5mC]*eA*eT) [compound 416843]		% inhibition [4]: 89%
416844 (antisense e[5mC]*eT*eT*eT*eG*dA*dG*dA*dT*dT*d[5mC]*dT*dT*dT*dG*eG*eG*e[5mC]*e[5mC]*eA) [compound 416844]		% inhibition [4]: 90%
416845 (antisense eT*e[5mC]*eT*eT*eT*dG*dA*dG*dA*dT*dT*d[5mC]*dT*dT*dT*eG*eG*eG*e[5mC]*e[5mC]) [compound 416845]		% inhibition [4]: 86%
416846 (antisense eT*eT*e[5mC]*eT*eT*dT*dG*dA*dG*dA*dT*dT*d[5mC]*dT*dT*eT*eG*eG*eG*e[5mC]) [compound 416846]		% inhibition [4]: 72%
416847 (antisense eT*eT*eT*e[5mC]*eT*dT*dT*dG*dA*dG*dA*dT*dT*d[5mC]*dT*eT*eT*eG*eG*eG) [compound 416847]		% inhibition [4]: 50%
416868 (antisense eA*eA*eT*dG*dT*d[5mC]*dT*dT*dT*dG*dT*dT*dG*d[5mC]*dA*dA*dG*e[5mC]*eG*e[5mC]) [compound 416868]	93	
416869 (antisense eA*eA*eA*dT*dG*dT*d[5mC]*dT*dT*dT*dG*dT*dT*dG*d[5mC]*dA*dA*eG*e[5mC]*eG) [compound 416869]	81	
416870 (antisense eT*eA*eA*dA*dT*dG*dT*d[5mC]*dT*dT*dT*dG*dT*dT*dG*d[5mC]*dA*eA*eG*e[5mC]) [compound 416870]	76	
416871 (antisense eA*eT*eA*dA*dA*dT*dG*dT*d[5mC]*dT*dT*dT*dG*dT*dT*dG*d[5mC]*eA*eA*eG) [compound 416871]	28	
416872 (antisense e[5mC]*eA*eT*dA*dA*dA*dT*dG*dT*d[5mC]*dT*dT*dT*dG*dT*dT*dG*e[5mC]*eA*eA) [compound 416872]	20	
